Assay results: publication PMC10691846 (Protein & Cell, 2023)
Blank lines part the entries; values can stand above or below the molecule they belong to.

Legend:
MsCydDC [1] = molecular target: T1, MsCydDC (Mycolicibacterium smegmatis, UniProt A0QXA6+A4ZHS8); experiment: ATPase activity assay; type: biochemical; conditions: Arg326 of CydC Linking-beta2 Loop sandwiches the adenosine ring at the CydC NBD
T1 construct: gene MSMEG3240; purified CydC-CydD heterodimer

MsCydDC [2] = molecular target: T1, MsCydDC; experiment: cryo-EM structure of the complex; type: binding; conditions: Mg2+; ATP in the NBDs of CydC and CydD; outward-facing state
MsCydDC [3] = molecular target: T1, MsCydDC; experiment: ATPase activity assay; type: biochemical; conditions: Arg324 of CydC Linking-beta2 Loop sandwiches the adenosine ring at the CydC NBD
EcCydDC = molecular target: T2, EcCydDC (Escherichia coli, UniProt P23886+P29018); experiment: cryo-EM structure of the complex; type: binding; conditions: ATP-bound occluded state
T2 construct: gene cydC; purified CydC-CydD heterodimer

MsCydDC [4] = molecular target: T1, MsCydDC; experiment: ATPase activity assay; type: biochemical; conditions: Arg85 of CydD ICL1 stabilizes the adenosine ring at the CydD NBD
Escherichia coli CydD = molecular target: T3, Escherichia coli CydD (Escherichia coli, UniProt P29018 1-588); experiment: cryo-EM structure; purified CydDC complexes; MsCydDC in apo and ATP-bound states, EcCydDC in heme-loading and ATP-bound states; conditions: both partners purified
T3 construct: CydD, subunit of the ABC transporter CydDC of Escherichia coli; also called EcCydD; source: purified as the EcCydDC complex
T3 sequence: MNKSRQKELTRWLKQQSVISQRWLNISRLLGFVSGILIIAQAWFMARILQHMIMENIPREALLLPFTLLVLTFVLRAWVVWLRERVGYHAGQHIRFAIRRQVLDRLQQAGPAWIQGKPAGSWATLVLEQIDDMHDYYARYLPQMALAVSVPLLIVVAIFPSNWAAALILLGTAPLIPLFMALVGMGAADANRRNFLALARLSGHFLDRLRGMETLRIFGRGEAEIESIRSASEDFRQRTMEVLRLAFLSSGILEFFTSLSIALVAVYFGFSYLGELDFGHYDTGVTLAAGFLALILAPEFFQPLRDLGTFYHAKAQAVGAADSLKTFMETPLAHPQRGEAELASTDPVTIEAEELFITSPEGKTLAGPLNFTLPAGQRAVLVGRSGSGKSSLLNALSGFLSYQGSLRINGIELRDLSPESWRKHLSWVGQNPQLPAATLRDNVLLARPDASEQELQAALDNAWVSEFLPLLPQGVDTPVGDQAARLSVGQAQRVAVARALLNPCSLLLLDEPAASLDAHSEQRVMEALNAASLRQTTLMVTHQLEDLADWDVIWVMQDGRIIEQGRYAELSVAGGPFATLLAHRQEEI

T1 sequence (A0QXA6 entry or part of it): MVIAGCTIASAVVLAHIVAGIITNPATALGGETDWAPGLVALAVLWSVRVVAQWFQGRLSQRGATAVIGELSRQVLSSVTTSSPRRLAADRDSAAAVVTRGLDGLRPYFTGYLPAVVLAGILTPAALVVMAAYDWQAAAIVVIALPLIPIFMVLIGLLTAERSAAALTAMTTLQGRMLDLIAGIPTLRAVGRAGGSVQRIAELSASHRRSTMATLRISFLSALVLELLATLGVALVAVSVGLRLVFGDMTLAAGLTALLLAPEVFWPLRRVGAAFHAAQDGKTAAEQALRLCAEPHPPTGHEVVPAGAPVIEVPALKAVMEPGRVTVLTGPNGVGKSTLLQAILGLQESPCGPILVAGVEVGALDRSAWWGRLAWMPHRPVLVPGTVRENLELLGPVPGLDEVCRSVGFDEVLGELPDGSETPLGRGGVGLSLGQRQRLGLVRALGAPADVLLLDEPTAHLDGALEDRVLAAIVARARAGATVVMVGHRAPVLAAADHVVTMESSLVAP
T1 sequence (A4ZHS8 entry or part of it): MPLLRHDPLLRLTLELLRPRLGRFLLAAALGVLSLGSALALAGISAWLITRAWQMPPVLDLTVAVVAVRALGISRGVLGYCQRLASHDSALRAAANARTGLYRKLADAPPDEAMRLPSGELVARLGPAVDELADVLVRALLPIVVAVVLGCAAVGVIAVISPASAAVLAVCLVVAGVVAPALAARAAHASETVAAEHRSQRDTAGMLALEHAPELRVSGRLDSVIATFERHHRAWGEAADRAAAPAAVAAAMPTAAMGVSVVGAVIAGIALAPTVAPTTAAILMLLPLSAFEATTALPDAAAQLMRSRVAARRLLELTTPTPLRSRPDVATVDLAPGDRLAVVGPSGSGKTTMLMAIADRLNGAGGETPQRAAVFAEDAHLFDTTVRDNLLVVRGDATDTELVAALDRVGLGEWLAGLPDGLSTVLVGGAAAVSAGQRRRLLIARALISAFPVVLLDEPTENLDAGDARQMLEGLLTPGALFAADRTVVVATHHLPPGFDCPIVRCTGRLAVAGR

Molecule: Nc1ncnc2c1ncn2[C@@H]1O[C@H](COP(=O)(O)OP(=O)(O)OP(=O)(O)O)[C@@H](O)[C@H]1O [ATP]
ATPase activity (MsCydDC [1]): a single mutation of any of these Arg residues significantly affected the ATPase activity
cryo-EM structure of the complex (MsCydDC [2]): the adenosine ring of ATP is stabilized by the sidechain of Arg85 from ICL1
ATPase activity (MsCydDC [3]): a single mutation of any of these Arg residues significantly affected the ATPase activity
cryo-EM structure of the complex (EcCydDC): We then determined the Cryo-EM structures of CydDC from Msm or E. coli
ATPase activity (MsCydDC [4]): a single mutation of any of these Arg residues significantly affected the ATPase activity

binding result (Escherichia coli CydD): binds
B1: Escherichia coli CydC (natural protein)
chain: MRALLPYLALYKRHKWMLSLGIVLAIVTLLASIGLLTLSGWFLSASAVAGVAGLYSFNYMLPAAGVRGAAITRTAGRYFERLVSHDATFRVLQHLRIYTFSKLLPLSPAGLARYRQGELLNRVVADVDTLDHLYLRVISPLVGAFVVIMVVTIGLSFLDFTLAFTLGGIMLLTLFLMPPLFYRAGKSTGQNLTHLRGQYRQQLTAWLQGQAELTIFGASDRYRTQLENTEIQWLEAQRRQSELTALSQAIMLLIGALAVILMLWMASGGVGGNAQPGALIALFVFCALAAFEALAPVTGAFQHLGQVIASAVRISDLTDQKPEVTFPDTQTRVADRVSLTLRDVQFTYPEQSQQALKGISLQVNAGEHIAILGRTGCGKSTLLQQLTRAWDPQQGEILLNDSPIASLNEAALRQTISVVPQRVHLFSATLRDNLLLASPGSSDEALSEILRRVGLEKLLEDAGLNSWLGEGGRQLSGGELRRLAIARALLHDAPLVLLDEPTEGLDATTESQILELLAEMMREKTVLMVTHRLRGLSRFQQIIVMDNGQIIEQGTHAELLARQGRYYQFKQGL
notes: CydC, subunit of the ABC transporter CydDC of Escherichia coli; also called EcCydC; source: purified as the EcCydDC complex
